# Assay results as given in patent publication US9206161B2, “Bridged bicyclic heteroaryl substituted triazoles useful as Axl inhibitors” (Rigel Pharmaceuticals, Inc., priority 2008, dated 2015).
# Target: T1, Axl (Homo sapiens, UniProt P30530)
# T1 construct: endogenous in cells; host or cells: HeLa cells
# T1 sequence (P30530 26-894): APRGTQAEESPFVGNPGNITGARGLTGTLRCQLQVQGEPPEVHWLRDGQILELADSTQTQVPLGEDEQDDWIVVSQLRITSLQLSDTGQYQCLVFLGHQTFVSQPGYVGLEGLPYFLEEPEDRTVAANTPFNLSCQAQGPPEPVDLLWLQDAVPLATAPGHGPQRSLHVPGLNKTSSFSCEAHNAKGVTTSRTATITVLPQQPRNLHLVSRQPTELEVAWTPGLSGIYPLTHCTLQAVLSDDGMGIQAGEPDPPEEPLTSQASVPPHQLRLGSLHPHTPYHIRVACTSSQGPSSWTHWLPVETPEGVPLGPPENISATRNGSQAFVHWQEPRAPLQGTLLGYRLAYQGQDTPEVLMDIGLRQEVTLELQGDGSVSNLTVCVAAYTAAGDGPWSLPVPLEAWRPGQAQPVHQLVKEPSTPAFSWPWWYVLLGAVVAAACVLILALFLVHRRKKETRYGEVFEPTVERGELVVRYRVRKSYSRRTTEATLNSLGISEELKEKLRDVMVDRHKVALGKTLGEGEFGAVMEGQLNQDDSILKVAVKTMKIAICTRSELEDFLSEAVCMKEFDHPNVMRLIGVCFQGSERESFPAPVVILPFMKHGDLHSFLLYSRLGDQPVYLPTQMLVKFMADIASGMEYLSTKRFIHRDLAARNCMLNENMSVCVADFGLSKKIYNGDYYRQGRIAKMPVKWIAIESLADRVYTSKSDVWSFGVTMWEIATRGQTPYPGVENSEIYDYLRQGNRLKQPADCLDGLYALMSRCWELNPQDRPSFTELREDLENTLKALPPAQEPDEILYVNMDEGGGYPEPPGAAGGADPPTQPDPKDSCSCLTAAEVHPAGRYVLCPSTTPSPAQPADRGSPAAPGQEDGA
# Experiment: Phospho-Akt in-cell Western assay
# Type: cell-based
# Settings: Hela cells, Axl antibody cross-linking stimulation, phospho-Akt readout
# Protocol: Phospho-Akt in-Cell Western Assay
# The compounds of the invention were tested in the following assay for their ability to inhibit Axl activity.
# • Cell culture plate: 96 well assay plate (Corning 3610), white, clear bottom, tissue-culture treated. • Cells: Hela cells. • Starvation medium: For Axl stimulation: 0.5% FCS (fetal calf serum) in DMEM, plus Axl/Fc (extracellular domain of AXL fused to immunoglobulin Fc region) (R&D, 154-AL) 500 ng/mL. • For EGF (epidermal growth factor) stimulation: 0.5% FCS in DMEM (Dulbecco's modified Eagles medium). • Poly-L-Lysine 0.01% solution (the working solution): 10 μg/ml, dilute In PBS (phosphate buffered saline). • Axl antibody cross-linking: • 1st: Mouse anti-Axl (R&D, MAB154). • 2nd: Biotin-SP-conjugated AffiniPure goat anti-mouse IgG (H+L) (Jackson ImmunoResearch #115-065-003). • Fixing buffer: 4% formaldehyde in PBS. • Wash buffer: 0.1% TritonX-100 in PBS. • Quenching buffer: 3% H2O2, 0.1% Azide in wash buffer, Azide and hydrogen peroxide (H2O2) are added fresh. • Blocking buffer: 5% BSA in TBST (tris buffered saline plus 0.1% Tween 20). • Primary antibody: Rabbit anti-human Phospho-Akt antibody (Cell Signaling 9271): 1×250 diluted in blocking buffer. • Secondary antibody: HRP (horse radish peroxidase)-conjugated Goat anti-Rabbit secondary, stock solution: Jackson ImmunoResearch (Goat anti-Rabbit HRP, #111-035-144) 1:1 diluted in glycerol, store at −20° C. The working solution: 1×2000 dilution of stock in blocking buffer. • Chemiluminescent working solution (Pierce, 37030): SuperSignal ELISA (enzyme linked immunosorbant assay) Pico Chemiluminescent substrate. • Crystal Violet solution: Stock: 2.5% Crystal violet in methanol, filtered and kept at ambient temperature. The working solution: dilute the stock 1:20 with PBS immediately before use. • 10% SDS: working solution: 5% SDS (sodium dodecylsulfate), diluted in PBS Methods: Day 1:
# A 96 well TC (tissue culture treated) plate was coated with 10 μg/mL poly-L-Lysine at 37° C. for 30 min, washed twice with PBS, and air-dried for 5 minutes before cells were added. Hela cells were seeded at 10,000 cells/well and the cells were starved in 100 μL starvation medium containing Axl/Fc for 24 hrs.
# The cells were pre-treated with test compounds by adding 100 μL of 2× test compound to the starvation medium on the cells. The cells were incubated at 37° C. for 1 hr before stimulation.
# The cells were stimulated by Axl-antibody cross-linking as follows: A 5×1st/2nd Axl antibody mixture was made (37.5 μg/mL 1st/100 μg/mL 2nd) in starvation medium and nutated at 4° C. with thorough mixing for 1-2 hours for clustering. The resulting mix was warmed to 37° C. 50 μL of 5× Axl 1st/2nd of antibody cluster was added to the cells and the cells were incubated at 37° C. for 5 min.
# After 5 minutes stimulation, the plate was flicked to remove medium and the plate was tapped onto paper towels. Formaldehyde (4.0% in PBS, 100 μL) was added to fix the cells and the cells were incubated at ambient temperature for 20 min without shaking.
# The cells were washed with a plate washer buffer to remove the formaldehyde solution. The plate was flicked to removed excess wash buffer and tapped onto paper towels. Quenching buffer (100 μL) was added to each well and the cells were incubated at ambient temperature for 20 minutes without shaking.
# The cells were washed with a plate washer buffer to remove the quenching buffer. Blocking buffer (100 μL) was added and the cells were incubated at ambient temperature for at least an hour with gentle shaking.
# The cells were washed with a plate washer buffer and diluted primary antibody (50 μL) was added to each well (blocking buffer was added to the negative control wells instead). The plates were incubated overnight at 4° C. with gentle shaking.
# The wash buffer was removed, diluted secondary antibody (100 μL) was added, and the cells were incubated at ambient temperature for 1 hour with gentle shaking. […]
smiles,measurement,setting,value
"Nc1nc(Nc2ccc(N3CCC(N4CCCC4)CC3)c(F)c2)nn1-c1nnc(-c2ccccc2Cl)c2c1C1CCC2CC1 [Compound 15, 1-(4-(2-chlorophenyl)-5,8-ethano-5,6,7,8-tetrahydrophthalazine-1-yl)-N^3-(4-(4-(pyrrolidin-1-yl)piperidinyl)-3-fluorophenyl)-1H-1,2,4-triazole-3,5-diamine]",IC50,"Table 5, formula (IVa)",< 1000 nM
"C[C@H]1CN(c2ccc(Nc3nc(N)n(-c4nnc(Cl)c5c4C4CCC5CC4)n3)cn2)CCN1CC1CC1 [Compound 20, (3S)-1-(4-chloro-5,8-ethano-5,6,7,8-tetrahydrophthalazine-1-yl)-N^3-(6-(4-(cyclopropylmethyl)-3-methylpiperazin-1-yl)pyridin-3-yl)-1H-1,2,4-triazole-3,5-diamine]",IC50,"Table 7, formula (V)",< 1000 nM
"Cc1cccc(-c2nnc(-n3nc(Nc4ccc(N5CCC(N6CCCC6)CC5)c(F)c4)nc3N)c3c2C2CCC3CC2)c1 [Compound 19, 1-(4-(3-methylphenyl)-5,8-ethano-5,6,7,8-tetrahydrophthalazine-1-yl)-N^3-(4-(4-(pyrrolidin-1-yl)piperidinyl)-3-fluorophenyl)-1H-1,2,4-triazole-3,5-diamine]",IC50,"Table 5, formula (IVa)",1000 to 10000 nM
"Nc1nc(Nc2ccc(N3CCC(N4CCCC4)CC3)c(F)c2)nn1-c1cc(-c2ccccc2)c2c(n1)C1CCN(CC1)C2 [Compound 7, 1-(6,9-ethano-4-phenyl-6,7,8,9-tetrahydro-5H-pyrido[3,2-c]azepin-2-yl)-N^3-(4-(4-(pyrrolidin-1-yl)piperidinyl)-3-fluorophenyl)-1H-1,2,4-triazole-3,5-diamine]",IC50,"Table 3, formula (II)",< 1000 nM
"Nc1nc(Nc2ccc(N3CCC(N4CCCC4)CC3)c(F)c2)nn1-c1cc(-c2cccc(C(F)(F)F)c2)c2c(n1)C1CCN2CC1 [Compound 10, 1-(1,4-ethano-8-(3-trifluoromethylphenyl)-1,2,3,4-tetrahydro-1,5-naphthyridin-6-yl)-N^3-(4-(4-(pyrrolidin-1-yl)piperidinyl)-3-fluorophenyl)-1H-1,2,4-triazole-3,5-diamine]",IC50,"Table 3, formula (II)",< 1000 nM
"Nc1nc(Nc2cnc3c(c2)CN(C2CCCC2)CC3)nn1-c1cc(-c2ccccc2)c2c(n1)C1CCN2CC1 [Compound 6, 1-(1,4-ethano-8-phenyl-1,2,3,4-tetrahydro-1,5-naphthyridin-6-yl)-N^3-(6-(cyclopentyl)-5,6,7,8-tetrahydro-1,6-naphthyridine-3-yl)-1H-1,2,4-triazole-3,5-diamine]",IC50,"Table 2, formula (Ib)",< 1000 nM
"Nc1nc(Nc2ccc(N3CCC(N4CCCC4)CC3)c(F)c2)nn1-c1nc2c(c(-c3ccccc3)n1)CCCC2 [Compound 42, 1-(4-phenyl-5,6,7,8-tetrahydroquinazoline-2-yl)-N^3-(4-(4-(pyrrolidin-1-yl)piperidinyl)-3-fluorophenyl)-1H-1,2,4-triazole-3,5-diamine]",IC50,"Table 9, formula (VII)",< 1000 nM
"Nc1nc(Nc2ccc3c(c2)CCC(N2CCCC2)CC3)nn1-c1nnc(-c2ccncc2)c2c1C1CCC2CC1 (stereo not shown) [Compound 34, 1-(4-(pyridin-4-yl)-5,8-ethano-5,6,7,8-tetrahydrophthalazine-1-yl)-N^3-(7-(pyrrolidin-1-yl)-6,7,8,9-tetrahydro-5H-benzo[7]annulene-2-yl)-1H-1,2,4-triazole-3,5-diamine]",IC50,"Table 8, formula (VI)",< 1000 nM
"Nc1nc(Nc2cnc3c(c2)CC(N)CC3)nn1-c1cc(-c2ccccc2)c2c(n1)C1CCN2CC1 (stereo not shown) [Compound 1, 1-(1,4-ethano-8-phenyl-1,2,3,4-tetrahydro-1,5-naphthyridin-6-yl)-N^3-(6-amino-5,6,7,8-tetrahydroquinoline-3-yl)-1H-1,2,4-triazole-3,5-diamine]",IC50,"Table 1, formula (Ia)",< 1000 nM
"CCOc1ccc(C)cc1-c1nnc(-n2nc(Nc3ccc4c(c3)CCC(N3CCCC3)CC4)nc2N)c2c1C1CCC2CC1 (stereo not shown) [Compound 32, 1-(4-(2-ethoxy-5-methylphenyl)-5,8-ethano-5,6,7,8-tetrahydrophthalazine-1-yl)-N^3-(7-(pyrrolidin-1-yl)-6,7,8,9-tetrahydro-5H-benzo[7]annulene-2-yl)-1H-1,2,4-triazole-3,5-diamine]",IC50,"Table 8, formula (VI)",1000 to 10000 nM
"CN(C)CC(=O)N1CCc2ncc(Nc3nc(N)n(-c4cc(-c5ccccc5)c5c(n4)C4CCN5CC4)n3)cc2C1 [Compound 4, 1-(1,4-ethano-8-phenyl-1,2,3,4-tetrahydro-1,5-naphthyridin-6-yl)-N^3-(6-[((dimethyl)amino)methylcarbonyl]-5,6,7,8-tetrahydro-1,6-naphthyridine-3-yl)-1H-1,2,4-triazole-3,5-diamine]",IC50,"Table 2, formula (Ib)",< 1000 nM
"N#Cc1cccc(-c2nnc(-n3nc(Nc4ccc5c(c4)CCC(N4CCCC4)CC5)nc3N)c3c2C2CCC3CC2)c1 (stereo not shown) [Compound 31, 1-(4-(3-cyanophenyl)-5,8-ethano-5,6,7,8-tetrahydrophthalazine-1-yl)-N^3-(7-(pyrrolidin-1-yl)-6,7,8,9-tetrahydro-5H-benzo[7]annulene-2-yl)-1H-1,2,4-triazole-3,5-diamine]",IC50,"Table 8, formula (VI)",< 1000 nM
"Nc1nc(Nc2ccc3c(c2)CCC(N2CCCC2)CC3)nn1-c1nnc(-c2ccccc2Cl)c2c1C1CCC2CC1 (stereo not shown) [Compound 29, 1-(4-(2-chlorophenyl)-5,8-ethano-5,6,7,8-tetrahydrophthalazine-1-yl)-N^3-(7-(pyrrolidin-1-yl)-6,7,8,9-tetrahydro-5H-benzo[7]annulene-2-yl)-1H-1,2,4-triazole-3,5-diamine]",IC50,"Table 8, formula (VI)",< 1000 nM
